What was measured:
[1] = tested on: HT-29 cells derived from human colon cancer; assay: ATP synthesis (ATP content by luciferase luciferin) in HT-29 cells; assay type: cell-based; details: 3 hr incubation, same concentration range as inhibits cell migration (FIG. 5)
Procedure: 1 ml of suspension of HT-29 cells derived from human colon cancer (4×10^5 cells/ml; RPMI1640 medium) was added to each well of a 24-well plate and incubated at 37° C. for 24 hr. Then, migrastatin or oxidized migrastatin was added thereto and incubated for 3 hr. In addition, a cultured broth to which migrastatin and oxidized migrastatin were not added was similarly incubated as a control. After the incubation, each well was washed twice with ice-cooled PBS^−. After an addition of 200 μl of 2% trichloroacetic acid, the plate was left at 4° C. for 30 min. The supernatant (160 μl) was neutralized with 36.8 μl of 0.5 N NaOH and used as a sample. This sample (160 μl) was added to 3 ml of PBS^− containing 4 mM MgCl2. Then, 40 μl of 4 mg/ml luciferase luciferin (Sigma) was added thereto and immediately the ATP content was measured with a single-photon monitor of a scintillation counter (LS-5000TD: BECKMAN COULTER). In addition, the ATP content under the conditions where the sample and luciferase luciferin were not added was measured as a blank value and was subtracted from each measurement value.

[2] = tested on: EC17 cells derived from human esophageal cancer; assay: cell migration inhibition, scratch assay with EC17 cells; assay type: cell-based; details: compound added immediately after scratching, 24 hr incubation, microscopic observation (FIG. 4)
Procedure: 500 μl of suspension of EC17 cells derived from human esophageal cancer (1.5×10^5 cells/ml; RPMI1640 medium (Nissui)) was added to each well of a 48-well plate and incubated at 37° C. for 24 hr. Then, the cells were linearly scraped off by scratching the center of the bottom of each well in a straight line with a micropipette tip. Then, the supernatant of the culture broth was immediately removed. The well was washed with 300 μl of PBS^− (8 g/l NaCl, 0.2 g/l KCl, 0.916 g/l Na2HPO4, 0.2 g/l KH2PO4) carefully not to scrape the remaining cells, and 500 μl of a RPMI1640 medium containing 1% serum (FBS; manufactured by Tissue Culture Biologicals) was gently added to the well. Further, migrastatin or oxidized migrastatin was added thereto and incubated at 37° C. for 24 hr. In addition, a culture broth to which migrastatin and oxidized migrastatin were not added was similarly incubated as a control. After the incubation, how much the straight line formed with the micropipette tip was filled with cells which had migrated from surroundings was confirmed by microscopic observation to evaluate migration of the cells.

Row | Structure (SMILES) | inhibition of ATP synthesis [1] | migration of cells ([2]; concentration of 30 μl/ml) | inhibition of migration of cells over the concentration range [2]
1 | CO[C@H]1/C=C/CC/C=C/C(=O)O[C@H]([C@H](C)C(=O)CCCC2CC(=O)NC(=O)C2)/C(C)=C\[C@@H](C)[C@@H]1O [migrastatin] | inhibited ATP synthesis | completely inhibited | inhibited depending on the concentration of migrastatin
2 | CO[C@H]1/C=C/CC/C=C/C(=O)O[C@H]([C@H](C)C(=O)CCCC2CC(=O)NC(=O)C2)/C(C)=C\[C@@H](C)C1=O [oxidized migrastatin, migrastatin oxide] | did not inhibit ATP synthesis at all | – | inhibition effect was observed at almost the same concentration range

From patent US20080167201A1, “Method For Synthesizing Derivative, Compound Library and Method For Constructing the Same, and Method For Screening” (priority 2004, published 2008)
